The source of these data is patent US20230310455A1, “COMBINATION THERAPIES FOR TREATMENT OF HER2 CANCER” (Genentech, Inc., priority 2020, published 2023).

The target of experiment [1] is Class I PI3K alpha isoform (PI3Kα) versus Class I PI3K beta, delta, and gamma isoforms (Homo sapiens, UniProt P42336). Particulars: cited from earlier work.
In experiment [2] the test system is HER2 negative (PIK3CA-mutant) breast cancer cell lines. Nature of the experiment: Viability assay (CellTiter-Glo), HER2 negative breast cancer cell lines. Format: cell-based. Particulars: viability by ATP quantification. From the text: (§1) In a cell proliferation assay, we investigated the effect of inavolisib and alpelisib (both PI3Kα specific inhibitors) on vialibility of breast cancer cell lines having different HER2 expression and PIK3CA mutant status. Unexpectedly, we observed a significant difference between the sensitivity of inavolisib and alpelisib in HER2 amplified (˜20 fold difference between the mean IC50 values) versus HER2 negative cell lines (˜6-fold difference between two inhibitors). Both inhibitors were not differentiated in wild-type (WT) cell lines regardless of HER2 status (FIG. 1).
(§2) Cell lines were obtained from the ATCC. All cell lines underwent authentication by Short Tandem Repeat profiling, SNP fingerprinting, and mycoplasma testing (Yu M. et al. “A resource for cell line authentication, annotation and quality control” Nature 520, 307-311 (2015)). Cell lines were grown under standard tissue-culture conditions in RPMI media with 10% fetal bovine serum (Gibco, 10082-147), 100 U/mL penicillin-streptomycin (Gibco, 15140-122), 2 mmol/L L-glutamine (Gibco, 15030-081). […]
(§3) Viability assay: Cells were seeded (1000-2000 cells/well) in 384-well plates for 16 hours. […] After 4 days, relative numbers of viable cells were measured by luminescence using CellTiter-Glo® (Promega) according to the manufacturer's instructions and read on a Wallac Multilabel Reader (PerkinElmer, Foster City). […]

In experiment [3] the test system is HER2 amplified (HER2-positive PIK3CA-mutant) breast cancer cell lines. Nature of the experiment: Viability assay (CellTiter-Glo), HER2 amplified breast cancer cell lines. Format: cell-based. Conditions: viability by ATP quantification.
Source text: as §1, §2, §3

Experiment [4] concerns KPL-4 (HER2-positive, PIK3CA H1047R) breast cancer xenograft. Nature of the experiment: In vivo tumor growth inhibition, KPL-4 breast cancer xenograft model. Conditions: inavolisib 25 mg/kg orally daily 28 days, trastuzumab 3 mg/kg and pertuzumab 2.5 mg/kg i.p. weekly 4 weeks.
Description: The in vivo efficacy of the test compounds and combinations was tested in a KPL-4 (HER2-positive, PIK3CA H1047R) breast cancer xenograft model. […] Tumor volumes were measured using Ultra Cal-IV calipers (Model 54-10-111; Fred V. Fowler Co.; Newton, MA). The following formula was used in Excel, version 11.2 to calculate tumor volume: Tumor Volume (mm^3)=(Length×Width^2)×0.5. Mice for efficacy studies were distributed into 8-10 mice/group with a mean tumor volume of 200 to 250 mm^3 at the initiation of dosing. A linear mixed effect (LME) modeling approach was used to analyze the repeated measurement of tumor volumes from the same animals over time (Pinheiro et al., “Linear and Nonlinear Mixed Effects Models” R package version 3; 1-131 (2017)). Cubic regression splines were used to fit a non-linear profile to the time courses of log^2 tumor volume at each dose level. These non-linear profiles were then related to dose within the mixed model. Tumor growth inhibition as a percentage of vehicle control (%TGI) was calculated as the percentage of the area under the fitted curve (AUC) for the respective dose group per day in relation to the vehicle, using the following formula: %TGI=100×(1−AUCdose/AUCvehicle).
Tumor sizes and mouse body weights were recorded twice weekly, and mice with tumor volume exceeding 2000 mm^3 or body weight loss of 20% of starting weight were promptly euthanized.

Chain of Class I PI3K alpha isoform (PI3Kα) versus Class I PI3K beta, delta, and gamma isoforms (P42336 whole entry, canonical isoform): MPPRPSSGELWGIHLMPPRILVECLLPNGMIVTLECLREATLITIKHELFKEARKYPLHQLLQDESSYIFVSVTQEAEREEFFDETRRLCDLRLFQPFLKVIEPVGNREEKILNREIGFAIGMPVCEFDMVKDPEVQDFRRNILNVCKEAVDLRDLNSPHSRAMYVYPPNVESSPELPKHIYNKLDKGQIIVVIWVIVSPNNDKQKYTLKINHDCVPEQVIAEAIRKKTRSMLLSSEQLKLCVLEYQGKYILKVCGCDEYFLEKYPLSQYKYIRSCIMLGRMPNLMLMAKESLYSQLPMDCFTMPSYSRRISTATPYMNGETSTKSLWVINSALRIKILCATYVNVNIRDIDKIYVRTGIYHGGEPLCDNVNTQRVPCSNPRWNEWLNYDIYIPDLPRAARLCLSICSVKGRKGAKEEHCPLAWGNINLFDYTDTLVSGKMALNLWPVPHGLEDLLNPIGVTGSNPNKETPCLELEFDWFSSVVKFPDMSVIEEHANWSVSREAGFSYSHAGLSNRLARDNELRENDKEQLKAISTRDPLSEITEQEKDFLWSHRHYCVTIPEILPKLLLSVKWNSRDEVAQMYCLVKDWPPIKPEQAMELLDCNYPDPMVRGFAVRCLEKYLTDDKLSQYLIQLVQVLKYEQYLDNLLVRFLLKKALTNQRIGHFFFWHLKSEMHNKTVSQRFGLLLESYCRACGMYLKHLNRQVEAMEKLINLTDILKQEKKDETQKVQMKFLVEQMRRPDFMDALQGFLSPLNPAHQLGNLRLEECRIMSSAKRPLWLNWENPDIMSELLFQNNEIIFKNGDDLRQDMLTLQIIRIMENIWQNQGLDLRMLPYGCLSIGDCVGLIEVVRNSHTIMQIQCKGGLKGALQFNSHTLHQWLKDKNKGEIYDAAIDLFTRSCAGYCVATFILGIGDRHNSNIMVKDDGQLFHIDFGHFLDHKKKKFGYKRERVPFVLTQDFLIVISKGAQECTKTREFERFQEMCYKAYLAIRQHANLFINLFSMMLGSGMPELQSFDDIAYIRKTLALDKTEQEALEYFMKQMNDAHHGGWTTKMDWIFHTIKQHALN
Chain of Class I PI3K alpha isoform (PI3Kα) versus Class I PI3K beta, delta, and gamma isoforms (P27986 whole entry partner, canonical isoform): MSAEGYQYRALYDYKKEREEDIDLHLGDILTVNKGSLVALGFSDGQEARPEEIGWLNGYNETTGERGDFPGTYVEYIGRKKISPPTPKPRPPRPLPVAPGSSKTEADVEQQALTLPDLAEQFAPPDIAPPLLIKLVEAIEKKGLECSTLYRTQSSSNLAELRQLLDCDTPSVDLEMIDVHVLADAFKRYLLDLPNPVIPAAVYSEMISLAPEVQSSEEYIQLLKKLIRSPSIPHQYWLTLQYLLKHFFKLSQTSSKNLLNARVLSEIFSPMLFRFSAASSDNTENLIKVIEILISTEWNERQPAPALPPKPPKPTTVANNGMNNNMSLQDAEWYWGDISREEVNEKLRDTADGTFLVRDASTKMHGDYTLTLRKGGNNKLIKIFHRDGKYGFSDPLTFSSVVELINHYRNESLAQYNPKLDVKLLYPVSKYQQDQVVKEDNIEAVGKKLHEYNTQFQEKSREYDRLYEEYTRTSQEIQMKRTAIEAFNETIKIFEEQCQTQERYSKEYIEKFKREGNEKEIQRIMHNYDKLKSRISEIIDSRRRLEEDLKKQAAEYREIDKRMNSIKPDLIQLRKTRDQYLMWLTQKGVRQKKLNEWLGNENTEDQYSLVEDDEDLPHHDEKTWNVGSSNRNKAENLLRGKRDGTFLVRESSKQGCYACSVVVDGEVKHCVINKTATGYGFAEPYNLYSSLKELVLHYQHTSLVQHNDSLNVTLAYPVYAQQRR

Regarding `C[C@H](Nc1ccc2c(c1)OCCn1cc(N3C(=O)OC[C@H]3C(F)F)nc1-2)C(N)=O` [inavolisib, (S)-2-((2-((S)-4-(difluoromethyl)-2-oxooxazolidin-3-yl)-5,6-dihydrobenzo[f]imidazo[1,2-d][1,4]oxazepin-9-yl)amino)propanamide], the “less potent biochemical inhibition for other Class I PI3K beta, delta, and gamma isoforms (selectivity for PI3Kα)” value in experiment [1] is listed as above 300 fold. Further, the “difference between two inhibitors (mean IC50 values of inavolisib and alpelisib)” value in experiment [2] is given as 6 fold. In addition, the “difference between the mean IC50 values of inavolisib and alpelisib” value in experiment [3] is reported as around 20 fold. Besides, in experiment [4], the “Growth Effect Duration” value is above 31.0 and the “Growth Rate Contrast” value was −0.069. In experiment [4] (9 mice per group), the “Growth Contrast” value was −0.086.
